The values that follow come from patent US5747247A, “Spectroscopic helicase assay” (The Regents of The University of California, priority 1994, dated 1998).

The test system of test [1] is E. coli helicase I, helicase II (uvrD), and rep proteins. The settings on record: George et al., cited from earlier work; for Ki: read-out: Ki for ATPase and helicase activities.
A further test concerns helicase. The settings on record: other studies (refs 46-48); cited from earlier work.
Test [2] relates to recBCD enzyme. The test can be described thus: Dye displacement fluorometric helicase assay (DNA unwinding followed by dye fluorescence). In kind it is biochemical, E. coli. The settings on record: for Apparent rate of unwinding at which the dye titration levels off: 0.5 nM total recBCD, 2 uM SSB, plateau at ~150 nM for H33258 and TO and 375 nM for DAPI; for Apparent rate of unwinding at which the dye titration levels off / Vmax, observed rate of unwinding at saturating enzyme: 20° C.; for Increase of Vmax in absence of SSB protein relative to its presence: SSB protein omitted vs present; for Vmax, observed rate of unwinding: SSB protein omitted; for Vmax, observed rate of unwinding / Vmax, observed rate of unwinding at saturating enzyme: 250 nM DAPI, 100 nM H33258, 300 nM TO; for Vmax, observed rate of unwinding at saturating enzyme / Apparent energy of activation (Ea) of unwinding: with SSB protein; for Vmax, observed rate of unwinding at saturating enzyme: SSB assay gives 250±25; for Apparent energy of activation (Ea) of unwinding: Arrhenius plots from 20°, 25°, 32°, 37° C., SSB assay 9.7. How it is done:
(§1) Fluorometric helicase assay: The standard reaction buffer consisted of 25 mM Tris-acetate (pH 7.5), 1 mM Mg(OAc)2, and 1 mM DTT. When SSB protein was included, it was present at a 3-fold molar excess, assuming a site size of 15 nucleotides/monomer under stoichiometric conditions. This corresponds to a protein concentration which is 20% of the DNA (nucleotide) concentration. The DNA substrate was BamHI-digested pBR322 DNA, at a concentration of 10 uM nucleotide (2.1 nM ends).
(§2) The reaction (350 ul total volume) contained standard buffer, linear pBR322 DNA, and the indicated concentration of recBCD enzyme. […] The fluorescence signal due to these components was zeroed out. The fluorophore (either SSB protein or dye) was then added, and the reaction was allowed to equilibrate to the indicated temperature. Unwinding was initiated by the addition of ATP to 3 mM final concentration. […] For SSB protein fluorescence measurements, the value for 100% unwinding was calculated as described previously (28, 41). For dye fluorescence experiments, the value for complete unwinding was obtained by subtracting the fluorescence in the presence of an equimolar amount of ssDNA (i.e., heat-denatured pBR322) (FssDNA) from the fluorescence at the start of the reaction (FdsDNA). The difference in these values (FdsDNA -FssDNA) was taken to be the maximum fluorescence change possible if all of the DNA molecules were fully unwound (Fexp). The observed fluorescence change (Fobs) was divided by this differ ence to obtain the extent of unwinding. Initial rates were then calculated as described previously (28).
(§3) Fluorescence measurements were carried out on a Shimadzu RF5000U spectrofluorophotometer. When the intrinsic fluorescence of SSB protein was measured, the excitation and emission wavelengths were set at 290 and 340 nm, respectively. The excitation and emission wavelengths for the various dyes were determined experimentally in the presence of dsDNA. For AO, these values were 487 and 510 nm; for DAPI, 345 and 467 nm; for EB, 546 and 590 nm; for EHD, 552 and 596 nm; for H33258, 344 and 487 nm; and for TO, 504 and 528 nm. When SSB protein fluorescence was monitored, the band widths were 1.5 and 10 nm for the excitation and emission slits, respectively; for all of the dye fluorescence experiments, these values were 5 and 10 nm, respectively.
To determine whether the presence of dyes affected the observed rate of unwinding, the reaction (including SSB protein) was performed at several concentrations of DAPI, H33258, and TO. The reactions were performed at 20° C. in standard buffer with 10 uM nucleotide (2.1 nM ends) linear pBR322 DNA, 2 uM SSB protein, 0.5 nM total (0.17 nM functional) recBCD enzyme, and the indicated concentration of dye. Unwinding was initiated by adding ATP to a final concentration of 3 mM. […] For each dye (DAPI (.circle-solid.), H33258 (o), or TO (.tangle-solidup.), the initial rate of unwinding was determined as described in the Experimental Procedures and is plotted in panel B as a function of dye concentration. Due to the lag behavior illustrated in panel A, the data at concentrations ≤100 nM are considered unreliable, as indicated by shading this portion of the graph.
In FIG. 4A, raw data from an experiment in which recBCD enzyme concentration was varied at a given concentration of TO are shown; SSB protein was included to allow comparison to previous results. From results such as these, using either DAPI, H33258, or TO, the data in FIG. 4B were generated. Unwinding was performed as in FIG. 3, except that the concentration of recBCD enzyme was varied, and a constant concentration of fluorophore (250 nM for DAPI; 100 nM for H33258; and 300 nM for TO) was used. In panel A, a portion of the raw data obtained with TO are shown. The observed rates of unwinding derived from such experiments are shown in panel B. DAPI, .circle-solid.; H33258, o; TO, .tangle-solidup.. […]

In test [3] the target is T1, recBCD enzyme (Escherichia coli, UniProt P04993+P07648+P08394).
T1 construct: made in house
The test can be described thus: SSB protein fluorescence assay of DNA unwinding in presence of fluorescent dyes. The class given is biochemical, E. coli. The settings on record: for Rate of DNA unwinding: 20° C., 2 uM SSB protein, 0.5 nM total recBCD enzyme, none = 40.7 ± 4.1. How it is done: as §1, §2, §3
The unwinding reaction was performed at 20° C. in buffer containing 25 mM Tris-acetate (pH 7.5), 1 mM Mg(OAc)2, 3 mM ATP, 1 mM DTT, 10 uM nucleotide BamHI-digested pBR322 DNA, 2 uM SSB protein, 0.5 nM total (0.17 nM functional) recBCD enzyme, and the indicated concentrations of dye. SSB protein fluorescence was monitored.

T1 sequence (P07648 whole entry): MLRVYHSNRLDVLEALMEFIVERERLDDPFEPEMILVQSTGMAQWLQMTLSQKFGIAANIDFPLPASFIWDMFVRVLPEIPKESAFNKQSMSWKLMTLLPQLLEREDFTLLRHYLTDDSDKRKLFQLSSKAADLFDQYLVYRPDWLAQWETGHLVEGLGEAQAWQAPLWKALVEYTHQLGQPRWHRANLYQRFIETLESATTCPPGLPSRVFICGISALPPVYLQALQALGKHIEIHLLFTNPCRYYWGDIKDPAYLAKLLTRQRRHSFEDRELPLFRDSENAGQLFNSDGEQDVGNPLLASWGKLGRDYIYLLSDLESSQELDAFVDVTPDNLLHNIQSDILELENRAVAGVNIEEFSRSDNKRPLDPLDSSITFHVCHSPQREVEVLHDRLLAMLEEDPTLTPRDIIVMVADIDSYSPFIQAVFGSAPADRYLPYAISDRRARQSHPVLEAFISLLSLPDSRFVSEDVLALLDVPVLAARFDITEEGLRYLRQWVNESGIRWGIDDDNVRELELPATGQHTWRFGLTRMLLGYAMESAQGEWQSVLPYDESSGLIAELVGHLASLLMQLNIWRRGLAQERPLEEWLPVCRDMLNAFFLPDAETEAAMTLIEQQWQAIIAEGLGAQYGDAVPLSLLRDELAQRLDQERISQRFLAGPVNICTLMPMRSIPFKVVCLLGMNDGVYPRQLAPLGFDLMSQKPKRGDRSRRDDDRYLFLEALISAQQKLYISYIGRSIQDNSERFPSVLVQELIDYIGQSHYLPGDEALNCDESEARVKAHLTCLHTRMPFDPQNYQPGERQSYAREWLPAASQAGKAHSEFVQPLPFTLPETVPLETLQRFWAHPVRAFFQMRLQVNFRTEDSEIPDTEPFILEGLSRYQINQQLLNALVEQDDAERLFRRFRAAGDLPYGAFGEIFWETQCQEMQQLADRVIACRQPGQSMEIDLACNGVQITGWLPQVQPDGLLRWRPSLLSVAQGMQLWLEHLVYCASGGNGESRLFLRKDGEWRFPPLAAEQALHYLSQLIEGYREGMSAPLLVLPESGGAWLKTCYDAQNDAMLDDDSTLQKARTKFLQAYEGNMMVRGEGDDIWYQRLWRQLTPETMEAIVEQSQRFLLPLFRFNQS
T1 sequence (P04993 whole entry): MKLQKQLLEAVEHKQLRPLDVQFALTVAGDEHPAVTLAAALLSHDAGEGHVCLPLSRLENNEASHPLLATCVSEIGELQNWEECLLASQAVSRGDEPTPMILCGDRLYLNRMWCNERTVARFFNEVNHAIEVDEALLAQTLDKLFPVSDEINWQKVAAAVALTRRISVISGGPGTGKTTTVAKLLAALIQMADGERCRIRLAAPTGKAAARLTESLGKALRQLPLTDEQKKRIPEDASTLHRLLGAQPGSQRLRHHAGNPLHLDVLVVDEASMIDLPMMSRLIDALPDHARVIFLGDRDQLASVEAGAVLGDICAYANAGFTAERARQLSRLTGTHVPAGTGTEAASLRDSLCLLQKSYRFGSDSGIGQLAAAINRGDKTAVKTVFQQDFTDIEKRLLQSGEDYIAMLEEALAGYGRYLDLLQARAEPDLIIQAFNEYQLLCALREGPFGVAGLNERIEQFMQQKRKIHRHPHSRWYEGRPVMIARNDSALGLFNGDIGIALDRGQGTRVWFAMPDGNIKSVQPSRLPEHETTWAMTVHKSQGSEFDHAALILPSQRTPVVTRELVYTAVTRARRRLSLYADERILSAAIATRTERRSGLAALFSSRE
T1 sequence (P08394 whole entry): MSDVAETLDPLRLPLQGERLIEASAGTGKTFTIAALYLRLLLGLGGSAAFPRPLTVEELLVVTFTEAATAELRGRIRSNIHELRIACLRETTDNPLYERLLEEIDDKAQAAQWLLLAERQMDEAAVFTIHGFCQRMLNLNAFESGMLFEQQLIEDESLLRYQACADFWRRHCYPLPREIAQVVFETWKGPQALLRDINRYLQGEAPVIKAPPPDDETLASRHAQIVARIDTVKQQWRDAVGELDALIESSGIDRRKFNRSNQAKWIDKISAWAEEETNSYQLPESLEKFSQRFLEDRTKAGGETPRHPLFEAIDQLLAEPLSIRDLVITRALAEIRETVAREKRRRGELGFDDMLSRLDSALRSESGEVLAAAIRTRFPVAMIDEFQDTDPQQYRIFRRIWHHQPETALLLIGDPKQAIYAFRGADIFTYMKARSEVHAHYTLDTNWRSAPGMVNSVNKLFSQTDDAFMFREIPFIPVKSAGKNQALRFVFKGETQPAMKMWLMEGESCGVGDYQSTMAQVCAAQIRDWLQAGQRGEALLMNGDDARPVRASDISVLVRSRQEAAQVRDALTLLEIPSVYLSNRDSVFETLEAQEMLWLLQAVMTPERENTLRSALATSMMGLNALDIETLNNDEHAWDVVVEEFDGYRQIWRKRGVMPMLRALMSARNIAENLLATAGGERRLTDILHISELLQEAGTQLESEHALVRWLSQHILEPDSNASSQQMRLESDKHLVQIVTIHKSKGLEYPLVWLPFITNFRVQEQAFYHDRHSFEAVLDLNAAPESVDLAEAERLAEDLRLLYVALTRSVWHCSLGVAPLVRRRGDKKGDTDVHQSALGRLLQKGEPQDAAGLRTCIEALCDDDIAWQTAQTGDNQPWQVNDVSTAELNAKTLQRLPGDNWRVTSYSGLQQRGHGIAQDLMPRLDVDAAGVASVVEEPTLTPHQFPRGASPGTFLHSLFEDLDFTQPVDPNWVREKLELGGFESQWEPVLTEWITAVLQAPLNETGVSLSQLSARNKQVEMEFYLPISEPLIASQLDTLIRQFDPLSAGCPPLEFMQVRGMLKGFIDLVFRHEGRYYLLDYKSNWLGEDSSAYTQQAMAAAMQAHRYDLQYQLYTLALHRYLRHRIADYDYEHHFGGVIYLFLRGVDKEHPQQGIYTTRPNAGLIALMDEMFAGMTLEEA

Turning to `CN(C)c1ccc2cc3ccc(N(C)C)cc3nc2c1` [AO, acridine orange], the Ki – broadly, a dissociation constant, usually derived from enzyme kinetics or from competition with a known ligand – in test [1] is 1 to 10 µM.

Take `O=C1c2c(O)ccc(O)c2C(=O)c2c(NCCNCCO)ccc(NCCNCCO)c21` [mitoxantrone]: the Inhibition of helicases result in test [1] (dependent upon ligand and enzyme) was “potent but differential inhibition”.

Regarding `COc1c(O)c2c(c3cc(C(=O)N4CCc5c4c(O)c(OC)c4[nH]c(C(=O)N6CC7CC78C6=CC(=O)c6[nH]cc(C)c68)cc54)[nH]c13)CCN2C(N)=O` (stereo not shown) [CC-1065], the “Inhibition of helicase activity” value in the test with helicase is given as “inhibition of helicase activity”.

Take `CN1C(=Cc2cc[n+](C)c3ccccc23)Sc2ccccc21` [TO, thiazole orange]: in the test with recBCD enzyme [2], the “Apparent rate of unwinding at which the dye titration levels off” value was 20-25 nM bp/s; the “Increase of Vmax in absence of SSB protein relative to its presence” value is given as 25-50%; the “Vmax, observed rate of unwinding” value is given as 330±25 nM bp/s; the “Vmax, observed rate of unwinding at saturating enzyme” value is 211±15 nM bp/s. Further, the “Apparent energy of activation (Ea) of unwinding” value with recBCD enzyme [2] came to 9.7 kcal/mol. Further, the “Rate of DNA unwinding” value on recBCD enzyme [3] (100 nM dye) was 35.6 ± 1.3 nm bp/s. Further, the “Rate of DNA unwinding” value on recBCD enzyme [3] (250 nM dye) amounted to 31.9 ± 0.7 nm bp/s. Besides, the inhibition at 0.25 µM on recBCD enzyme [3] (read-out: Decrease of observed rate of unwinding) was below 20%.

As for `CN1CCN(c2ccc3[nH]c(-c4ccc5[nH]c(-c6ccc(O)cc6)nc5c4)nc3c2)CC1` [H33258, Hoechst 33258], in the test on recBCD enzyme [2], the “Apparent rate of unwinding at which the dye titration levels off” value is listed as 20-25 nM bp/s; the “Increase of Vmax in absence of SSB protein relative to its presence” value is listed as 25-50%; the “Vmax, observed rate of unwinding” value is on record as 272±30 nM bp/s; the “Vmax, observed rate of unwinding at saturating enzyme” value amounted to 221±25 nM bp/s. Besides, in the test with recBCD enzyme [2], the “Apparent energy of activation (Ea) of unwinding” value was 9.9 kcal/mol. Also, in the test with recBCD enzyme [2] (400 nm DAPI, 300 nm H33258), the “Rate of unwinding at optimal dye concentration compared with SSB protein fluorescence assay” value is “within experimental error, equal to those obtained using the SSB protein fluorescence assay”. In addition, the Ki in test [1] was 1 to 10 µM. Moreover, on recBCD enzyme [3] (100 nM dye), the “Rate of DNA unwinding” value is 36.1 ± 4.5 nm bp/s. For the same compound, the “Rate of DNA unwinding” value on recBCD enzyme [3] (250 nM dye) is 35.5 ± 1.9 nm bp/s. Moreover, the “Effect on observed rate of unwinding” value at recBCD enzyme [3] (dye at 100 or 250 nM, low enzyme concentration) was “does not affect the observed rate of unwinding”.

Consider `N=C(N)c1ccc(-c2cc3ccc(C(=N)N)cc3[nH]2)cc1`, for which, in test [1], the Ki is 1 to 10 µM.
